We go through three compounds from patent EP2386565A2, “Compounds and methods to inhibit or augment an inflammatory response” (Cambridge Enterprise Ltd., priority 1999, dated 2000).

Non-standard residues stand in square brackets, D forms with d. Residues, ends and D or L forms follow the SMILES beside them. No end group written: not given here. *: point of attachment. Biotin = O=C1N[C@H]2[C@H](CS[C@H]2CCCCC(=O)*)N1 Some results are limits rather than exact numbers.

The nature of series [1]: Pharmacokinetics of radiolabeled D-ala peptide after IV or SQ bolus. In kind it is in vivo, mice. Here is the method:
When ^3H-D-ala peptide 3(1-12)[MCP-1] (^3H-D-ala was attached to Asp) was given as an intravenous (IV) or subcutaneous (SQ) bolus to mice, peak serum concentrations were reached within 1 hour. This radiolabeled peptide was rapidly excreted (approximately 4 hours), primarily via the kidney. […] Direct comparison of ^3H-D-ala peptide 3(1-12)[MCP-1] (no DARC binding and rapidly cleared) and CRD-L-Leu4Ile11Cys13peptide 3(3-12)[MCP-1]

Series [2] relates to recombinant human chemokine receptors. Briefly: Binding of biotin-labeled peptide to parental and chemokine receptor expressing HOS and CHO lines (125I-streptavidin). The conditions noted are these: labeled peptide at 10 µM. An excerpt:
HOS parental cells and CCR1-5 and CXCR4 transformants were obtained from the AIDS Reagent Program and were maintained as described on the supplier data sheet. Selection for the chemokine receptor-expressing plasmid was maintained throughout culture. CHO parental cells and CXCR1 and CXCR2 transformants were obtained form Dr. J. Navarro (Southwestern University, TX, USA) and maintained as described by the supplier under constant selection for expression of the chemokine receptor. All cells were split at about a 1:10 dilution approximately every 4 days, releasing the cells with EDTA solution and reseeding at known density. […]
The binding of labeled peptide 2 and labeled peptide 3 to the parental HOS, parental CHO and 8 chemokine receptor expressing lines was compared. […] The amount of streptavidin molecules added was calculated in each case to be approximately 50-fold in excess over the number of chemokine receptor sites. […]
To determine whether this apparent binding of peptide 2 was cell dependent, or whether it was binding to the plastic (or the some component of the fetal calf serum used during the cell culture), the following experiment was conducted. Three plates were evaluated: One had HOS parental cells, another had CCR5 over-expressors and the third had no cells but was incubated with the FCS-containing culture medium. […]

Series [3] has as its system MCP-1 induced THP-1 migration. The series is described as follows: THP-1 trans-well migration assay, MCP-1 as chemoattractant. In kind it is cell-based, human. Here is the method:
(§1) To determine whether an agent inhibits a chemokine-induced activity, such as macrophage recruitment, varying amounts of the agent are mixed with cells in the presence of a known chemoattractant. For example, a range of known concentrations of an agent, e.g., a chemokine peptide, is incubated with a defined number (e.g., 10^4 - […]) of human THP-1 monocyte cells in individual wells of the top compartment of a trans-well plate. Chemokine (such as MCP-1, MIP1α, IL8 or SDF-1α), at a concentration known to cause significant migration of THP-1 cells in the trans-well migration assay, is placed in the lower compartment (Figure 1). Cells are then incubated at 37°C for a period sufficient to allow migration, e.g., 4 hours. After incubation, the cells are gently removed from the top of the filter with a pipette, 20 µl of 20 mM EDTA in simple PBS is added into each top well, and incubated for 20 minutes at 4°C. The filter is carefully flushed with media using a gentle flow, and removed. A standard curve consisting of a two-fold dilution series of THP-1 cells (in 29 µl) is prepared to accurately quantify the number of cells that have migrated. Migrated cells are stained with 3 µl of MTT stock dye solution which is added directly into each well (5 mg/ml in RPMI-1640 without phenol red, Sigma Chemical Co.) and incubated at 37°C for 4 hours. The media is carefully aspirated from each well, and the converted dye is solubilized by 20 µl of DMSO. Absorbance of converted dye is measured at a wavelength of 595 nm using an ELISA plate reader. The number of migrated cells in each well is then determined by interpolation of the standard curve (see also Imai et al.,J. Biol. Chem., 272, 15036 (1997)).
Any method suitable for counting cells can be used, for example, counting with a hemocytometer, incubation of the cells with MTT (see above), or FACS analysis. A negative control assay is also performed, using TGF-β or another non-chemokine chemoattractant (e.g., IL1β or TNFα). To assess whether the agent is cytotoxic, the same concentrations of agent are incubated with THP-1 cells. Agents which 1) are not cytotoxic at levels which inhibit migration, 2) are ineffective at inhibiting the negative control-induced migration, and 3) reduce or inhibit chemokine-induced THP-1 migration, are agents which fall within the scope of the invention.
For this assay, THP-1 cells were maintained at a density of 4 × 10^5 cells per ml in RPMI-1640 supplemented with 10% fetal calf serum + 20 µM 2-mercaptoethanol. Chemotaxis was induced in a 96-well disposable chemotaxis chamber fitted with a 5 µM polycarbonate filter (PVP free, ChemoTX, Neuroprobe Inc., Cabin John). […] The framed filter was aligned with the holes in the corner of the filter frame and placed over the wells.
(§2) Five × 10^4 THP-1 cells in 25 µl of RPMI-1640 were added to the upper compartment. Peptides were dissolved in Milli Q water and then serially diluted in culture medium. In most cases, the serially diluted peptides were added to the upper compartment of the chemotaxis chamber. The chamber was incubated at 37°C in a humidified atmosphere of 5% CO2 for 4 hours.
After incubation, the cells were gently removed from the top of the filter with a pipette, 20 µl of 20 mM EDTA in PBS was added into each top well, and the mixture was incubated for 20 minutes at 4°C. The filter was then carefully flushed with media using a gentle flow, and removed. A standard curve was prepared to accurately quantify the number of THP-1 cells that had migrated. The curve was based on a two-fold dilution series of THP-1 cells (top standard 100,000 cells in 29 µl). Cells which had migrated, and in separate wells, the cells in the standards, were stained with 3 µl of MTT stock solution which was added directly into each well (5 mg/ml in RPMI 1640 without phenol red, Sigma Chemical Co.) and incubated at 37°C for 4 hours. The media was carefully aspirated from each well, and the converted dye was solubilized by 20 µl of DMSO. […]

For series [4], the system named is HIV. In kind it is cell-based. The following applies: ns = not significant.
The subject of series [5] is SDF-1α induced THP-1 migration. Briefly: THP-1 trans-well migration assay, SDF-1α as chemoattractant. The class given is cell-based, human. The conditions noted are these: inhibition of THP-1 migration; n.s./ns = not statistically significant. Here is the method:
as §1
(§3) For this assay, THP-1 cells were maintained at a density of 4 × 10^5 cells per ml in RPMI-1640 supplemented with 10% fetal calf serum + 20 µM 2-mercaptoethanol. Chemotaxis was induced in a 96-well disposable chemotaxis chamber fitted with a 5 µM polycarbonate filter (PVP free, ChemoTX, Neuroprobe Inc., Cabin John). Twenty-nine µl of chemoattractant (recombinant human chemokine; 50 ng/ml, i.e., 5.9 nM) or control (100 ng/ml TGFβ) was added to the lower compartment of each well. The framed filter was aligned with the holes in the corner of the filter frame and placed over the wells.
as §2
(§4) After incubation, the cells were gently removed from the top of the filter with a pipette, 20 µl of 20 mM EDTA in PBS was added into each top well, and the mixture was incubated for 20 minutes at 4°C. The filter was then carefully flushed with media using a gentle flow, and removed. A standard curve was prepared to accurately quantify the number of THP-1 cells that had migrated. The curve was based on a two-fold dilution series of THP-1 cells (top standard 100,000 cells in 29 µl). Cells which had migrated, and in separate wells, the cells in the standards, were stained with 3 µl of MTT stock solution which was added directly into each well (5 mg/ml in RPMI 1640 without phenol red, Sigma Chemical Co.) and incubated at 37°C for 4 hours. The media was carefully aspirated from each well, and the converted dye was solubilized by 20 µl of DMSO. Absorbance of converted dye was measured at a wavelength of 595 nm using an ELISA plate reader. The number of cells that had migrated in each well was determined by interpolation of the standard curve.
(§5) To investigate the receptor specificity of peptide 3 inhibition, the ED50 was determined for peptide 3(1-12)[MCP-1] (SEQ ID NO:1) inhibition of THP-1 migration induced by chemokines which signal through different receptors than MCP-1 receptors. […]

Series [6] has as its system MIP1α induced THP-1 migration. The series is described as follows: THP-1 trans-well migration assay, MIP1α as chemoattractant. The class given is cell-based, human. The conditions noted are these: inhibition of THP-1 migration; n.s./ns = not statistically significant. Here is the method:
as §1, §3, §2, §4, §5

Series [7] has as its system gp120. The following applies: ns = not significant; >100 = ED50 not determined. Here is the method:
Binding assays. Cells (either Jurkat T-cells or THP-1 cells) were grown in RPMI 1640 medium supplemented with 10% fetal calf serum, 2 mM glutamine, 20 µM β-mercaptoethanol, 100 U/ml penicillin and 100 µg/ml streptomycin and maintained between 2 × 10^5 and 1 × 10^6 cells/ml. Prior to performing a binding assay, cells were spun out (100 × g; 4 minutes) and washed 3 times in ice-cold PBS. A volume of cell suspension in PBS containing 10^6 cells (for Jurkat cells) or 4 × 10^5 cells (for THP-1 cells) was pipetted into each well of a V-bottom 96-well plate (Gibco BRL) and spun out (100 x g; 4 minutes). Triplicate wells were then resuspended in 100 µl binding medium (PBS pH 7.2 containing 0.1% fatty acid-free bovine serum albumin (BSA)) containing labeled peptide in the presence or absence of various concentrations of unlabeled peptide. The plate was then incubated on ice for 90 minutes. Cells were washed 3 times with 380 µl of ice-cold PBS, spinning out the cells each time (100 × g; 4 minutes), and resuspended in 100 µl binding medium containing streptavidin-peroxidase (Amersham International) at 1:1000 dilution. Cells were incubated for a further 15 minutes on ice to allow labeling of any bound biotinylated peptide, then washed 4 times as above. Cells were then incubated with 200 µl TMB substrate (K-Blue, Bionostics) for 20 minutes at room temperature, and the reaction stopped by addition of 50 µl 2 M HCl. The plate was spun (3,000 × g; 3 minutes) and 200 µl of the colored product was transferred to an empty 96-well ELISA plate and the absorbance at 450 nm determined. For each assay, the absorbance of a blank reaction (no peptide added) was subtracted from all readings before further analysis.
Binding experiments with labeled peptide 2 were performed with 10 nM labeled peptide in each reaction.

For “^3H-D-ala peptide 3(1-12)[MCP-1]: ^3H-D-ala was attached to Asp (EICAD(3H‑D‑Ala)PKQKWVQ; not fully specified)”, in series [1], the “time of excretion, primarily via the kidney” value is listed as “approximately 4 hours” and the “time to peak serum concentrations” value was at most 1 h.

For the compound “labeled peptide: N-terminal biotin conjugate of the sequence n'-CLDPKQKWIQC-c' (Biotin-CLDPKQKWIQC; cysteine pairing not given here)”, the “binding to parental and chemokine receptor expressing cell lines (in words)” value in series [2] is listed as “No detectable binding”. In addition, the “ED50 for inhibition of MCP-1 induced migration” value in series [3] (MCP-1 at 100 ng/ml in RPMI 1640 + 10% FCS, 4 hours, 5 µm filter) is listed as “about 4 µM”.

On to `CC[C@@H](C)[C@@H](NC(=O)[C@H](NC(=O)[C@@H](CO)NC(=O)[C@@H](CO)NC(=O)[C@@H](CCCCN)NC(=O)[C@@H](CO)NC(=O)[C@H]1CCCN1C(=O)[C@@H](CCCCN)NC(=O)[C@@H](CCC(=O)O)NC(=O)[C@@H](C)NC(=O)[C@H](NC(=O)[C@H](N)CS)C(C)C)[C@H](C)O)C(=O)N[C@H](CCCNC(=N)N)C(=O)N[C@H](CCCNC(=N)N)C(=O)N[C@H](Cc1ccc(O)cc1)C(=O)N[C@H](CO)C(=O)N[C@H](CS)C(=O)O` [cvaekpsksstirrysc] (H-[dC][dV][dA][dE][dK][dP][dS][dK][dS][dS][dT][dI][dR][dR][dY][dS][dC]-OH; N-terminus and C-terminus assumed), for which the “% virus inhibition” value in series [4] was “ns”. Moreover, in series [5], the “ED50 (µM) versus SDF-1α” value is reported as “ns”. For the same compound, in series [3] (inhibition of THP-1 migration, n.s./ns = not statistically significant), the “ED50 (µM) versus MCP-1” value is “ns”. Besides, the “ED50 (µM) versus MIP1α” value in series [6] is recorded as “ns”. Moreover, in series [7], the “gp120 ED-50 (µM)” value is “ns”.
